# Reference: publication PMC4613797 (Journal of medicinal chemistry, 2015)
# How the values were obtained:
# [1] = mice, up to a dose of 60 µg/kg ref 18, 19; cited from earlier work
# Mouse CYP27B1 = molecular target: T1, Mouse CYP27B1 (Mus musculus, UniProt O35084); assay: Kinetics of 1α-hydroxylation; type: in vitro ADME; details: for Km: 1α-hydroxylation by mouse CYP27B1, phospholipid vesicles, 2 min, ±SE of the curve fit
# T1 sequence (O35084 1-507): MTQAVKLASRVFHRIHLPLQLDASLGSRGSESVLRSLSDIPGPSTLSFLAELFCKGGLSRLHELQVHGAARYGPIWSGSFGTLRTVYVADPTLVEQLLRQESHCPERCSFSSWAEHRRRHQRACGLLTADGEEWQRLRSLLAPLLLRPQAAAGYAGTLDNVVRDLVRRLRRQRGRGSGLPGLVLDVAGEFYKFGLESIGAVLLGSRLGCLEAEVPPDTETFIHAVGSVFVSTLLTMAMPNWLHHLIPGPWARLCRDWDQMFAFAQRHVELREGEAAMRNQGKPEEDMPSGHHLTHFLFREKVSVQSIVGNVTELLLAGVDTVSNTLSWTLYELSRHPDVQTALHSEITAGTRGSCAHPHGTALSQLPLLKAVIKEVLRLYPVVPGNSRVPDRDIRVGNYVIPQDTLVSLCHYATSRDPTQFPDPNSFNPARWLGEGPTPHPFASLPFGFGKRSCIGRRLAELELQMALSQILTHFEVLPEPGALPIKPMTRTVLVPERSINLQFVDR
# vitamin D receptor (VDR) [2] = assay: Lentiviral VDRE luciferase reporter assay in Caco-2 cells; type: cell-based
# vitamin D receptor (VDR) [3] = assay: Lentiviral VDRE luciferase reporter assay in HaCaT cells; type: cell-based, human
# SKMEL 188 melanoma cells = SKMEL 188 melanoma cells ref 6; cited from earlier work
# [4] = tested on: IFNγ production by mouse splenocytes; assay: IFNγ inhibition assay in mouse splenocytes; type: cell-based; details: 100 nM, versus control
# [5] = Homo sapiens, Caco-2, 24 h, read-out: VDRE activation (EC50, nM) Caco-2, Caco-2, VDRE-luciferase, 24 h
# [6] = read-out: VDRE activation (EC50, nM) Caco-2, Caco-2, VDRE-luciferase, 24 h
# [7] = Homo sapiens, 24 h, read-out: VDRE activation (EC50, nM) HaCaT, HaCaT, VDRE-luciferase, 24 h
# [8] = read-out: VDRE activation (EC50, nM) HaCaT, VDRE-luciferase, 24 h
SMILES,calcemic activity [1],Km (Mouse CYP27B1),"kcat, fold higher than that for the 24S isomer (Mouse CYP27B1; mouse CYP27B1, versus 20S,24S(OH)2D3) [fold]","catalytic efficiency (kcat/Km), fold higher than 20S,24S(OH)2D3 (Mouse CYP27B1; mouse CYP27B1, versus 20S,24S(OH)2D3, listed as 20S,24R(OH)2D3) [fold]",EC50 (vitamin D receptor (VDR) [2]; [5]) [nM],EC50 (vitamin D receptor (VDR) [2]; [6]) [nM],EC50 (vitamin D receptor (VDR) [3]; [7]) [nM],EC50 (vitamin D receptor (VDR) [3]; [8]) [nM],"inhibiting colony formation, potency compared with 1,25(OH)2D3 (SKMEL 188 melanoma cells)",effect on production of IFNγ by splenocytes (in words) [4]
"C=C1CC[C@H](O)C/C1=C/C=C1\CCC[C@@]2(C)[C@H]1CC[C@@H]2[C@@](C)(O)CCCC(C)C [20S(OH)D3, 20S-hydroxyvitamin D3]",noncalcemic,–,–,–,–,–,–,–,–,–
"C=C1CC[C@H](O)C/C1=C/C=C1\CCC[C@@]2(C)[C@H]1CC[C@@H]2[C@@](C)(O)CC[C@@H](O)C(C)C [Compound 17a, 20S,24R-dihydroxyvitamin D3]",–,7.99 ± 4.01 (mmol of substrate)/(mol of phospholipid),18,5,> 1000,> 1000,> 1000,> 1000,"more potent than 1,25(OH)2D3",–
"C=C1CC[C@H](O)C/C1=C/C=C1\CCC[C@@]2(C)[C@H]1CC[C@@H]2[C@@](C)(O)CC[C@H](O)C(C)C [Compound 17b, 20S,24S-dihydroxyvitamin D3]",–,2.49 ± 0.59 (mmol of substrate)/(mol of phospholipid),–,–,> 1000,> 1000,> 1000,> 1000,–,slightly increased production
